Experimental data: patent US11471477B2, “Methods for treating triple-negative breast cancer” (Chan Zuckerberg Biohub, Inc., priority 2017, dated 2022)

Key:
HS578T cells = assay: Cell viability assay (WST-1), shRNA-transduced cells; type: cell-based, human; conditions: 4 days after transduction; normalized to control shRNA
Protocol: (§1) For in vitro cell line experiments, concentrated lentiviral supernatant (to achieve an MOI of 3) was mixed with cells at the time of seeding. Cells were monitored by visualization of RFP under fluorescence microscopy. All flow cytometry analyses were performed after at least 72 hours of infection.
(§2) For cell lines treated with chemical or infected with lentivirus, WST-1 Cell Proliferation Reagent (Roche) was added at 1:10 (v/v) final dilution to each well per manufacturer's instructions. Cells were subsequently incubated at 37° C. and 5% CO2. Between 1 and 4 hours after addition of reagent, plates were analyzed on a SpectraMax M3 Bioanalyzer (Molecular Devices). Absorbance for each well was measured at 450 nm (signal wavelength) and 650 nm (reference wavelength). Thus, the signal for each experimental sample was Absorbanceexperimental (A450nm-A650nm). To correct for the effect of media, Absorbancebackground (A450nm-A650nm) was obtained by measuring absorbance in a blank well. Thus, the background corrected signal for each sample Acorrected=Absorbanceexperimental−Absorbancebackground. All Acorrected values for the knockdowns were normalized to the Acorrected value for the control sample to obtain a ‘Relative Viability’.

MDA-MB231 cells = assay: as above; type: cell-based, human; conditions: 4 days after transduction; normalized to control shRNA
Protocol: as §1, §2

MDA-MB468 cells = assay: as above; type: cell-based, human; conditions: 4 days after transduction; normalized to control shRNA
Protocol: as §1, §2

[1] = tested on: human mammary epithelial cells (HMEC); assay: Cell viability assay (WST-1), non-transformed mammary cells; type: cell-based; conditions: 4 days after transduction; normalized to control shRNA
Protocol: as §1, §2

PDX-T1 tumor cells = assay: Organoid colony formation assay; type: cell-based, human; conditions: colonies counted 2 weeks after transduction
Protocol: (§3) For in vivo PDX tumor growth and organoid colony formation experiments, concentrated lentiviral supernatant (to achieve an MOI of 10) was mixed with single cell suspensions of PDX tumor cells in organoid media with 4 μg/mL of Polybrene (Sigma-Aldrich). Organoid media consisted of: Advanced DMEM/F12 (Invitrogen), 10% FBS (Hyclone), 2.5% growth factor-reduced Matrigel (BD), 10 ng/mL mouse EGF (R&D), 100 ng/mL Noggin (R&D), 250 ng/mL RSPO-1 (R&D), 1× B27 (Invitrogen), 1× N2 (Invitrogen), and PSA (Life Technologies). Cells were then spinoculated by centrifuging at 15° C. for 2 hours at 1200×g. Cells were resuspended by pipetting and left overnight in 48-well ultra-low attachment cell culture plates (Corning).
For organoid colony formation assays, cells were transferred the next day to matrigel. For in vivo PDX assays, approximately 75% of the cells were injected into NSG mice as described in the PDX tumor engraftment section. […] Dissociated cells were resuspended in flow cytometry buffer and analyzed by flow cytometry to determine the ‘baseline’ RFP percentage for cells that were injected into the mice.
Irradiated L1-Wnt3a feeder cells (generous gift of Dr. Roel Nusse) were mixed with growth factor reduced matrigel (BD Biosciences) and allowed to solidify at 37° C. […] Colonies were counted under fluorescence microscopy. Only RFP positive colonies (which represent transduced cells) were counted. […]

CDK19 = assay: Quantitative PCR RNA expression analysis of CDK19 knockdown; type: cell-based, human; conditions: normalized to control shRNA and beta-actin
Protocol: Cells were lysed with Trizol (Life Technologies) and RNA was extracted according to the manufacturer's instruction. RNA was then treated with DNAsel to remove contaminating genomic DNA. RNA was reverse transcribed to cDNA using SuperScript III First Strand Synthesis kit (Life Technologies) according to the manufacturer's instructions. TaqMan Gene Expression Master Mix (Applied Biosystems) and the following TaqMan Gene Expression Assays (Applied Biosystems) were used following manufacturer's instructions: ACTB, Hs00357333_g1; CDK19, Hs01039931_m1; CDK8, Hs00993274_m1. Data was collected on a 7900HT Fast Real-Time PCR System (Applied Biosystems) and data analyzed with SDS 2.4 software (Applied Biosystems). Gene expression data in each sample was normalized against the expression of beta-actin.

PDX-T1 [2] = assay: PDX tumor growth in NSG mice, percentage of RFP positive cells by flow cytometry; type: in vivo; conditions: normalized to control shRNA
Protocol: as §3
(§4) For organoid colony formation assays, cells were transferred the next day to matrigel. For in vivo PDX assays, approximately 75% of the cells were injected into NSG mice as described in the PDX tumor engraftment section. The remainder 25% of cells were plated on matrigel and grown in organoid media for 72 hours until the cells became RFP positive. At that point media was removed and exchanged for dispase and incubated for 2-3 h until the matrigel dissolved. Dissociated cells were resuspended in flow cytometry buffer and analyzed by flow cytometry to determine the ‘baseline’ RFP percentage for cells that were injected into the mice.
(§5) Single cell suspensions of PDX cells were resuspended in 50% (v/v) mixtures of normal matrigel (BD Biosciences) and flow cytometry buffer in a total volume of 50-100 μL. Using an insulin syringe, cells were injected subcutaneously into the nipple of female NSG mice at the fourth abdominal fat pad. For limiting dilution assays, the specific number of cells injected into the mice were determined by flow cytometry and secondarily by manual counting with a hemocytometer.
(§6) Flow cytometry was performed with a 100 μm nozzle on a Flow Cytometry Aria II (BD Biosciences) with Diva software (BD Biosciences). Data analysis was performed using Flowjo software (Flowjo). For all experiments, side scatter and forward scatter profiles (area and width) were used to eliminate debris and cell doublets. Dead cells were eliminated by excluding 4′,6-diamidino-2-phenylindole (DAPI)-positive cells (Molecular Probes). For PDX tumor cells, they were gated for GFP positivity and then for RFP positivity. RFP percentage is the percentage of GFP positive cells that are also RFP positive. For each sample, we obtain the RFP fraction that is: the RFP % in the tumor divided by the baseline RFP % (see ‘Lentivirus infection’ section). RFP fraction for each sample is then normalized to the RFP fraction for the shRNA control sample which is set at 100% to obtain the ‘Normalized % RFP’.

PDX-T2 = assay: as above; type: in vivo; conditions: normalized to control shRNA
Protocol: as §3, §4, §5, §6

PDX-T3 = assay: as above; type: in vivo; conditions: normalized to control shRNA
Protocol: as §3, §4, §5, §6

PDX-T4 [3] = assay: as above; type: in vivo
Protocol: as §3, §4, §5, §6

PDX-T1 [4] = assay: RFP positive lung metastases in mice bearing PDX tumor xenografts; type: in vivo, NSG mice
Excerpt: (§7) Xenograft tumors and mice lungs were surgically resected after the mice were euthanized. A 3 to 4 mm section is cut from each tumor and saved in ice cold PBS for imaging. The mice lungs and tumors were imaged on a M205FA Fluorescence Stereo Microscope (Leica) and images were captured with a DFC310FX camera (Leica).
(§8) Percentage of mice with RFP positive lung metastases from mice bearing PDX-T1 (FIG. 1K) or PDX-T4 (FIG. 1L) tumor xenografts are shown. Number of mice with RFP positive lung metastases and total number of mice in each treatment group is shown as a fraction for each condition. PDX tumor cells were transduced with either control shRNA or CDK19 targeting shRNA (shCDK19-1, shCDK19-2) (For FIG. 1K, n=9, experiment performed three times; For […], n=3, experiment performed once). […] In FIG. 1N, bright field images (left column) show gross lung morphology, FITC images (middle column) identify metastatic tumor cells labeled with GFP, and Texas-Red images (right column) identify shRNA-transduced metastatic cells labeled with RFP. We also tested the effect of CDK19 knockdown on PDX-T4, an aggressive PDX obtained from the brain metastasis of a patient with a chemotherapy-resistant inflammatory breast cancer.

PDX-T4 [5] = assay: as above; type: in vivo, NSG mice
Excerpt: as §7, §8

PDX-T1 [6] = assay: Survival of mice engrafted with shRNA-transduced PDX-T1 xenografts; type: in vivo, NSG mice; conditions: mice with PDX-T1 tumors; vs control shRNA; sacrificed when tumor exceeded 17 mm
Excerpt: We explored the effect of CDK19 knockdown on the growth of pre-established organoids in vitro and in pre-established PDX tumors in vivo. This aimed to model the treatment of patients' pre-existing tumors. […] In FIGS. 4A and 4B, number of organoid colonies at Day 0 (FIG. 4A) and Day 16 (FIG. 4B) after initiating doxycycline treatment is shown, ****P<0.0001; ns is P>0.05 (mean s.d., n=6, experiment performed twice, P values determined by unpaired t-test). […] In FIGS. 4C and 4D, the growth of pre-established tumors in the doxycycline fed NSG mice and control NSG mice are shown for inducCDK19KD-PDX-T1, ****P<0.0001; ***P<0.001 (mean±s.d., n=5, experiment performed twice, P values determined by unpaired t-test) (FIG. 4C) and inducCDK19KD-PDX-T3, ****P<0.0001; ***P<0.001 (mean±s.d., n=5, experiment performed once, P values determined by unpaired t-test) (FIG. 4D). CDK19 shRNA induced tumors were ultimately 82% smaller in inducCDK19KD-PDX-T1 tumors and 38% smaller in inducCDK19KD-PDX-T3 tumors when compared to control tumors (FIGS. 4C and 4D). […] Shown in FIG. 4E are Kaplan-Meir survival curves for mice engrafted with PDX-T1 xenografts transduced with control shRNA (black line), shCDK19-1 (solid gray line) or shCDK19-2 (dashed gray line). Mice were followed with weekly measurements of tumor diameters. Mice were sacrificed when the longest diameter of their tumor exceeded 17 mm. […]

Substance	Relative viability of HS578T cells (HS578T cells)	Relative viability of MDA-MB231 cells (MDA-MB231 cells)	Relative viability of MDA-MB468 cells (MDA-MB468 cells)	Relative viability of HMEC cells [1]	Formation of organoid colonies (PDX-T1 tumor cells)	Expression of CDK19 by RT-qPCR (CDK19; MDA-MB231)	Expression of CDK19 by RT-qPCR (CDK19; MDA-MB468)	Expression of CDK19 by RT-qPCR (CDK19; PDX-T1)	Percentage of RFP positive cells in tumors (PDX-T1 [2])	Percentage of RFP positive cells in tumors (PDX-T2)	Percentage of RFP positive cells in tumors (PDX-T3)	Growth of the PDX (PDX-T4 [3])	RFP positive lung metastases (PDX-T1 [4])	RFP positive lung metastases (PDX-T4 [5])	Overall survival (PDX-T1 [6])
shCDK19-1: CDK19 targeting shRNA, sense strand 5′-GCGAGAATTGAAGTACCTTAA-3′ (SEQ ID NO: 1), lentiviral vector (sense GCGAGAATTGAAGTACCTTAA; listed as Homo sapiens)	significantly decreased the viability	significantly decreased the viability	significantly decreased the viability	neither of the two CDK19 knockdowns affected the viability	inhibited the formation of organoid colonies	effectively silences CDK19	effectively silences CDK19	effectively silences CDK19	significant reduction in the percentage of RFP positive cells	significant reduction in the percentage of RFP positive cells	significant reduction in the percentage of RFP positive cells	inhibited both the growth of the PDX	eliminated the detection of any lung metastases	prevented transduced (RFP positive) TNBC cells from metastasizing to the lungs	significantly longer
shCDK19-2: CDK19 targeting shRNA, sense strand 5′-ACCAGCAAATATCCTAGTAAT-3′ (SEQ ID NO: 2), lentiviral vector (sense ACCAGCAAATATCCTAGTAAT; listed as Homo sapiens)	significantly decreased the viability	significantly decreased the viability	significantly decreased the viability	neither of the two CDK19 knockdowns affected the viability	inhibited the formation of organoid colonies	effectively silences CDK19	effectively silences CDK19	effectively silences CDK19	significant reduction in the percentage of RFP positive cells	significant reduction in the percentage of RFP positive cells	significant reduction in the percentage of RFP positive cells	inhibited both the growth of the PDX	eliminated the detection of any lung metastases	prevented transduced (RFP positive) TNBC cells from metastasizing to the lungs	significantly longer
